Laboratory results from BindingDB's records for doi:10.1021/acs.jmedchem.9b01227 (Johann Wolfgang Goethe-University, 2019).

Target: Mitogen-activated protein kinase kinase kinase 20 (ZAK) (Homo sapiens) (UniProt Q9NYL2)
Experiment: Inhibition of ZAK (unknown origin) expressed in human HEK293 cells incubated for 2 hrs followed by NanoBRET NanoGlo Substrate addition by NanoBRET assay

Mitogen-activated protein kinase kinase kinase 20 (ZAK) (Homo sapiens), sequence (Q9NYL2 whole entry, looked up): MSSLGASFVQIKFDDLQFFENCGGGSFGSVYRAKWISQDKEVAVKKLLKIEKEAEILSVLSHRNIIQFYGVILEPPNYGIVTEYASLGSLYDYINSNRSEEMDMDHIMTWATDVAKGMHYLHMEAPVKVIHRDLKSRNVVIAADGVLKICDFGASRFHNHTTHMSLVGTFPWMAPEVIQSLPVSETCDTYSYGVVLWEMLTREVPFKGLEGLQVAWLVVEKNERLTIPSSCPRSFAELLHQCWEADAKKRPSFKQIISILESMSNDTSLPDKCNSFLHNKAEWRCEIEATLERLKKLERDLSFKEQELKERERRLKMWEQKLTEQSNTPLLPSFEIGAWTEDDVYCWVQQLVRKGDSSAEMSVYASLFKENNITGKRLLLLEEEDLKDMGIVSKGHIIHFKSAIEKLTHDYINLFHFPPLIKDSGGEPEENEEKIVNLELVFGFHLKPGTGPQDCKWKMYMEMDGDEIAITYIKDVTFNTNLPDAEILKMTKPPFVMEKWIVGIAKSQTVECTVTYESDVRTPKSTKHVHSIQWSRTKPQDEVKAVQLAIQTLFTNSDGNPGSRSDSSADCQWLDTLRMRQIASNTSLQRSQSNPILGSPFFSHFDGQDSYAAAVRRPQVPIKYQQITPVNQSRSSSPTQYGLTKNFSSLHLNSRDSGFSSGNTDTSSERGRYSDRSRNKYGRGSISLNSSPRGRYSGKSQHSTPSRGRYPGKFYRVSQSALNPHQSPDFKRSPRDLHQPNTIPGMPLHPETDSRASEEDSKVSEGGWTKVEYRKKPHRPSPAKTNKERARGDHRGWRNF

| IC50 | SMILES |
| --- | --- |
| 0.91 µM | Nc1c(C(=O)NCc2ccc(C(=O)NCCCC3CCCCC3)cc2)cnn1-c1ccccc1 |
| 5.8 µM | O=C(NCCCC1CCCCC1)c1ccc(CNC(=O)c2cnn(-c3ccccc3)c2C(F)(F)F)cc1 |
